The source of these data is patent US11999956B2, “Targeted therapy composition and its use for suppressing breast cancer cell proliferation, migration or invasion” (NATIONAL CHENG KUNG UNIVERSITY, priority 2021, dated 2024).

One assay relates to SKBR3 cells. Kind of assay: IC50 of Metformin in SKBR3/Vec and SKBR3/siEMP3 cells. The note with it: 72 hours post treatment; SKBR3/siEMP3 vs SKBR3/Vec. The class given is cell-based, human. The source says:
Please refer to FIGS. 12A to 12B. The potential impact of EMP3 on sensitivity to Metformin in SKBR3 cells in vitro was illustrated therein. […] That means knocking down of EMP3 raises survival rate of breast cancer cells upon treatment of Metformin, which may imply a desensitizing effect of EMP3 on breast cancer cells in upon Metformin treatment. […] As well-known in the field of endeavor, interference of cross-talk between AMPK and Wnt/β-catenin signaling pathways may decelerate cell growth of breast cancer cells. In example 7, the intervention level of Metformin to AMPK in SKBR3/Vec and SKBR3/siEMP3 cancer cells was verified.

The next assay relates to AMPK-α1 and AMPK-α2. Kind of assay: Western blot, effect of Metformin on AMPK signaling pathway in SKBR3 cells. It is filed as cell-based, human. The protocol: Cells were lyzed in a radioimmunoprecipitation assay (RIPA) lysis buffer (Thermo Fisher Scientific Inc., Waltham, MA) and protease inhibitors (Thermo Fisher Scientific Inc., Waltham, MA) were used for protein extraction. Briefly, a total of 30 μg of protein was prepared on a 6 to 12% SDS-PAGE and transferred to a 0.2 to 0.45 μm polyvinylidene difluoride membrane (Stratagene, La Jolla, CA) and blocked by 5% milk (non-fat milk) in Tris Buffered Saline Buffer with Tween 20 (TBST). The membrane was hybridized with primary antibody at 4° C. overnight. The following day, after being washed with TBST for three times, membranes were incubated with secondary antibodies (anti-rabbit or anti-mouse IgG antibody) for 1 hour at room temperature. Detection of protein bands was performed using enhanced chemiluminescence system (Amersham ECL Plus; GE Healthcare, Piscataway, NJ).
Please refer to FIGS. 12A to 12B. The potential impact of EMP3 on sensitivity to Metformin in SKBR3 cells in vitro was illustrated therein. […] That means knocking down of EMP3 raises survival rate of breast cancer cells upon treatment of Metformin, which may imply a desensitizing effect of EMP3 on breast cancer cells in upon Metformin treatment. […] As well-known in the field of endeavor, interference of cross-talk between AMPK and Wnt/β-catenin signaling pathways may decelerate cell growth of breast cancer cells. […]
For orientation: In western blotting, separated proteins are transferred to a membrane and probed.

Turning to `CN(C)C(=N)N=C(N)N` [Metformin], the “IC50 values for Metformin in SKBR3/siEMP3 cells relative to vector control” value in the assay with SKBR3 cells is “higher”. In the assay with AMPK-α1 and AMPK-α2, the AMPK-α1 expression result was “down-regulated” and the AMPK-α2 expression entry is recorded as “down-regulated”.
